Measurements taken from patent US20250197375A1, “PYRIMIDINES AND METHODS OF THEIR USE” (Kineta, Inc., priority 2021, published 2025).

target: PIKfyve (Homo sapiens (Human), UniProt Q9Y2I7); experiment: PIKfyve EEA1 Assay (endosomal vesicle enlargement, high content imaging in U2OS cells); assay type: cell-based; conditions: 3 hours of treatment, activity relative to maximal APY0201 activity
Procedure: PIKfyve EEA1 Assay. Genetic or pharmacological disruption of PIKfyve activity results in enlargement of endosomal vesicles. This enlargement was utilized as a surrogate readout of PIKFyve inhibition for routine triage of PIKfyve inhibitors. U2OS cells grown in 96-well assay plates were treated with compound diluted in DMEM media containing 10% fetal bovine serum. After 3 hours of treatment, cells were fixed with paraformaldehyde, permeabilized with 0.2% Triton-X in phosphate buffered saline and stained against EEA1. During the secondary antibody staining, cells were also stained with CellMask™ Deep Red and Hoechst to detect cytoplasms and nuclei respectively. Endosomal structures were visualized using a high content imager at 40× magnification. Images were analyzed using a linear classifier algorithm integrating EEA1 spot size, intensity and texture trained on images of cells treated with the potent reference compound APY0201. Compound activity was calculated by subtracting the DMSO signal and calculating percentage activity relative to maximal APY0201 activity. IC50 values were then calculated from concentration versus percent inhibition data by logistic regression.

PIKfyve, sequence (Q9Y2I7 whole entry): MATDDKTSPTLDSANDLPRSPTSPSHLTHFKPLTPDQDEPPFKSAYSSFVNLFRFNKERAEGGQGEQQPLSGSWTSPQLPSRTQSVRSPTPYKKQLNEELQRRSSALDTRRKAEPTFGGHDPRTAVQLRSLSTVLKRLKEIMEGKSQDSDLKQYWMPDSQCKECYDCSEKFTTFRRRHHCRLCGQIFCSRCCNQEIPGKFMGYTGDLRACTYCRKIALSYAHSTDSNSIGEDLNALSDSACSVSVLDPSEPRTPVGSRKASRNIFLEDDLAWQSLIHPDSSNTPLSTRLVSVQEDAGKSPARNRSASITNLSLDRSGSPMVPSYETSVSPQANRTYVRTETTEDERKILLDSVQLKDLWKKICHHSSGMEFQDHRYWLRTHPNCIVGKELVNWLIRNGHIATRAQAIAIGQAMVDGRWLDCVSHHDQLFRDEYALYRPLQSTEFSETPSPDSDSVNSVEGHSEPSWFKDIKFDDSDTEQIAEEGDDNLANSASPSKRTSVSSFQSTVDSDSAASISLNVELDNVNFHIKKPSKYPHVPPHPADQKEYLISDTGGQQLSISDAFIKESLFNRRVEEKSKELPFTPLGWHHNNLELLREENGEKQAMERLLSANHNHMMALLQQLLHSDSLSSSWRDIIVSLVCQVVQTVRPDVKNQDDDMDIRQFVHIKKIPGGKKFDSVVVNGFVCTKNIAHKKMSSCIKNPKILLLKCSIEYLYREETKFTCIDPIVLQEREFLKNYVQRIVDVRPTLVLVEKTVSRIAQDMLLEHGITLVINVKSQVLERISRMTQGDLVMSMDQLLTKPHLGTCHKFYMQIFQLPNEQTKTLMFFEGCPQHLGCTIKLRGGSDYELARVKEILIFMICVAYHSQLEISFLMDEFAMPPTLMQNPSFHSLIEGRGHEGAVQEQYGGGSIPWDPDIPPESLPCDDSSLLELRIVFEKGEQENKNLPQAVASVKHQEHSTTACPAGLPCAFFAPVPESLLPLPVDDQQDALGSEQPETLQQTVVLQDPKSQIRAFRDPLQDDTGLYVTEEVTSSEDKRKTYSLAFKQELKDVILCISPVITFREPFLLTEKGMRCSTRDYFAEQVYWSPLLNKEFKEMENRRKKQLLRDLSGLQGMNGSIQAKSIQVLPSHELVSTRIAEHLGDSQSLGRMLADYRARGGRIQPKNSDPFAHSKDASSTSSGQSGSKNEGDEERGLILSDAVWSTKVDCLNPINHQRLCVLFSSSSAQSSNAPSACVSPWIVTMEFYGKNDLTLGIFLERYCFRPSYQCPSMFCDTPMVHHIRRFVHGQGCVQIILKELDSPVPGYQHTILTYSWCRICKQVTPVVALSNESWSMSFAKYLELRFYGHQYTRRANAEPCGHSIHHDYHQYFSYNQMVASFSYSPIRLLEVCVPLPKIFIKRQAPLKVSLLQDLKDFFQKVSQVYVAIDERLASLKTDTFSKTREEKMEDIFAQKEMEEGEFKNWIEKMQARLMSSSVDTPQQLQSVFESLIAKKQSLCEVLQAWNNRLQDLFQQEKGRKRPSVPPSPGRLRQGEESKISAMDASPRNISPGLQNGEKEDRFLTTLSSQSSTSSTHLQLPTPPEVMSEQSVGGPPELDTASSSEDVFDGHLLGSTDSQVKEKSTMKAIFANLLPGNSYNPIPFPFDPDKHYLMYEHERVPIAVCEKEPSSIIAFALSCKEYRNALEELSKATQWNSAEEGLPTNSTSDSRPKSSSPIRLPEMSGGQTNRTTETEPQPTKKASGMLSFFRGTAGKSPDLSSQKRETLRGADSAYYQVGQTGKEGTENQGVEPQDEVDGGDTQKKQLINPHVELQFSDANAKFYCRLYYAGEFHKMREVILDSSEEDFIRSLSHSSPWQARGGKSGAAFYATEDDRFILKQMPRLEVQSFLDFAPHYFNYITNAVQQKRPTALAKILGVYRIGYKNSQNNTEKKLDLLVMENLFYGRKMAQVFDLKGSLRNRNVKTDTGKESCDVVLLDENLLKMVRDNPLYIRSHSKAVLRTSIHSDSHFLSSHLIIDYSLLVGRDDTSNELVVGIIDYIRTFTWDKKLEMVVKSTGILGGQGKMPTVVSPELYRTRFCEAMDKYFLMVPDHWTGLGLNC

Compared with `COc1c(Nc2ccncc2)nc(N2CCOCC2)nc1-c1cccc(-c2ccn(C)n2)c1` [Compound 3, 5-methoxy-6-(3-(1-methyl-1H-pyrazol-3-yl)phenyl)-2-morpholino-N-(pyridin-4-yl)pyrimidin-4-amine], `COc1c(Nc2cccnc2)nc(N2CCOCC2)nc1-c1cccc(-c2ccn(C)n2)c1` [Compound 20, 5-methoxy-6-(3-(1-methyl-1H-pyrazol-3-yl)phenyl)-2-morpholino-N-(pyridin-3-yl)pyrimidin-4-amine] is higher in IC50: 0.01 to 0.1 µM for the first, 0.1 to 1 µM for the second. The first is the more potent here.

`COc1c(OCCc2ccccn2)nc(-c2cccc(-c3ccn(C)n3)c2)nc1N1CCOCC1` [Compound 4] and `COc1c(-c2cccc(-c3ccn(C)n3)c2)nc(OCCc2ccccn2)nc1N1CCOCC1` [Compound 5, 4-(5-methoxy-6-(3-(1-methyl-H-pyrazol-3-yl)phenyl)-2-(2-(pyridin-2-yl)ethoxy)pyrimidin-4-yl)morpholine] fall in the same range of IC50: 1 to 10 µM for the first, 1 to 10 µM for the second.

First: COc1c(Nc2ccncc2)nc(N2CCOCC2)nc1-c1cccc(-n2ccc(C)n2)c1 [Compound 9]
Second: COc1c(Nc2cccnc2)nc(N2CCOCC2)nc1-c1ccnc(-c2ccn(C)n2)c1 [Compound 25, 5-methoxy-6-(2-(1-methyl-1H-pyrazol-3-yl)pyridin-4-yl)-2-morpholino-N-(pyridin-3-yl)pyrimidin-4-amine]
The IC50 of the first is lower: 0.01 to 0.1 µM for the first, 0.1 to 1 µM for the second.

`COc1cc(-c2nc(N3CCOCC3)nc(Nc3cccnc3)c2OC)cnc1OC` [Compound 18, 6-(5,6-dimethoxypyridin-3-yl)-5-methoxy-2-morpholino-N-(pyridin-3-yl)pyrimidin-4-amine] and `COc1ccc(-c2nc(N3CCOCC3)nc(Nc3cccnc3)c2OC)cc1OC` [Compound 22] fall in the same range of IC50: 1 to 10 µM for the first, 1 to 10 µM for the second.

`COc1c(Nc2cccnc2)nc(N2CCOCC2)nc1-c1cccc(-c2cccnn2)c1` [Compound 21] and `COc1c(Nc2cccnc2)nc(N2CCOCC2)nc1-c1cccc(C#N)c1` [Compound 23, 3-(5-methoxy-2-morpholino-6-(pyridin-3-ylamino)pyrimidin-4-yl)benzonitrile] fall in the same range of IC50: 1 to 10 µM for the first, 1 to 10 µM for the second.

`COc1c(Nc2cccnc2)nc(N2CCOCC2)nc1-c1cccc(C(=O)N(C)C)c1` [Compound 24] and `COc1c(Nc2cccnc2)nc(N2CCOCC2)nc1-c1cccc(N2CCC(O)C2)c1` (stereo not drawn) [Compound 26, 1-(3-(5-methoxy-2-morpholino-6-(pyridin-3-ylamino)pyrimidin-4-yl)phenyl)pyrrolidin-3-ol] fall in the same range of IC50: 1 to 10 µM for the first, 1 to 10 µM for the second.

`COc1c(Nc2cccnc2)nc(N2CCOCC2)nc1-c1cccc(N2CCN(C)C(=O)C2)c1` [Compound 27, 4-(3-(5-methoxy-2-morpholino-6-(pyridin-3-ylamino)pyrimidin-4-yl)phenyl)-1-methylpiperazin-2-one] and `COc1c(Nc2cccnc2)nc(N2CCOCC2)nc1-c1cccc(N2CCCC2=O)c1` [Compound 29, 1-(3-(5-methoxy-2-morpholino-6-(pyridin-3-ylamino)pyrimidin-4-yl)phenyl)pyrrolidin-2-one] fall in the same range of IC50: 1 to 10 µM for the first, 1 to 10 µM for the second.

`COc1c(Nc2cccnc2)nc(N2CCOCC2)nc1-c1cccc(N2CCOCC2=O)c1` [Compound 28, 4-(3-(5-methoxy-2-morpholino-6-(pyridin-3-ylamino)pyrimidin-4-yl)phenyl)morpholin-3-one] and `COc1c(NCc2cccnn2)nc(N2CCOCC2)nc1-c1cccc(-c2ccn(C)n2)c1` [Compound 31, 5-methoxy-6-(3-(1-methyl-1H-pyrazol-3-yl)phenyl)-2-morpholino-N-(pyridazin-3-ylmethyl)pyrimidin-4-amine] fall in the same range of IC50: 1 to 10 µM for the first, 1 to 10 µM for the second.

First: COc1c(Nc2cccnc2)nc(-c2ccncc2)nc1-c1cccc(-c2ccn(C)n2)c1 [Compound 34, 5-methoxy-6-(3-(1-methyl-H-pyrazol-3-yl)phenyl)-N-(pyridin-3-yl)-2-(pyridin-4-yl)pyrimidin-4-amine]
Second: CN1CCCC(Oc2nc(N3CCOCC3)nc3c2OCc2cc(-c4ccccc4)nn2-3)C1 (stereo not drawn) [Compound 35, 4-((1-methylpiperidin-3-yl)oxy)-2-morpholino-8-phenyl-6H-pyrazolo[1,5-d]pyrimido[5,4-b][1,4]oxazine]
The IC50 of the first is lower: 0.01 to 0.1 µM for the first, 1 to 10 µM for the second.
